Laboratory results taken from patent US8697661B2, “Use of spinosyns and spinosyn compositions against herpesviridae viral infections” (priority 2009, dated 2014).
Like-named read-outs stand apart in the source and are kept apart here.

Legend:
[1] = system: Herpes Simplex Virus type 1, McIntyre (HSV1); test: Viral Plaque Reduction Assay / inhibition of infection assay, HSV1 in Vero cells; assay type: cell-based; conditions: 10 μg/ml spinosad
Vero cells = test: Toxicity assay on Vero cells; assay type: cell-based, African Green Monkey
[2] = system: Herpes Simplex Virus type 2, Strain MS-HSV2; test: IC50 assay against HSV2 in Vero cells; assay type: cell-based; conditions: 50-100 infectious units of HSV2
[3] = system: murine Leukemia Virus (ATCC VR-1445); test: Inhibition of murine Leukemia Virus in feline PG4 cells; assay type: cell-based; conditions: 10 μg/ml spinosad, virus load of 30 infectious units
[4] = system: Respiratory Syncytial Virus Strain A2-RSV; assay type: cell-based; conditions: 9.5 μg/ml spinosad, virus load of 50-100 infectious units, HEp2 cells
[5] = system: pancreatic tumor xenograph; test: Mouse pancreatic tumor xenograph assay; assay type: in vivo; conditions: for tumor volume on day1: baseline
H460 cells = test: Cytotoxicity on H460 cells, ApoTox-Glo Triplex assay; assay type: cell-based
[6] = system: Plasmodium falciparum, strain 3D7; conditions: 2% spinosad dispersion in DMSO
[7] = system: macrophage mice cell type J774; conditions: read-out: Cytotoxicity CC50; J774
[8] = system: BxPC-3 Human pancreatic adenocarcinoma; conditions: for Cell Survival (% of Control; mean ± S.D.): 24-hour exposure, 24 h post end of exposure
[9] = system: DU 145 Human prostatic carcinoma cells; conditions: for Cell Survival (% of Control; mean ± S.D.): 24-hour exposure, 24 h post end of exposure
[10] = system: PC-3 Human prostatic adenocarcinoma cells; conditions: for Cell Survival (% of Control; mean ± S.D.): 24-hour exposure, 24 h post end of exposure
[11] = system: PC-3 Human prostatic adenocarcinoma cells; test: Cell proliferation assay, PC-3; conditions: 24 hours of exposure (control 3.22)
Procedure: (§1) Cell Proliferation assay: for each cell line, cell suspensions ranging in concentration of approximately 2-5×10^5 cells/mL of growth medium were prepared. 1 mL of each of these suspensions was aseptically transferred to a sterile tissue culture flask (12.5 or 25 cm^2) containing fresh growth medium. Three flasks (triplicate) were used for each group, and for each time point of viable cell number/mL measurement at 1, 3 and 5 days post-treatment (9 dishes per group in total). The cells were incubated and allowed to adhere to the bottom of the flasks and proliferate.
(§2) After approximately 24 hours of exposure to treatments, dosing media was replaced with fresh growth media and cells were returned to the incubator and allowed to proliferate.
(§3) Assessment of Cell Proliferation: For each cell line, measurement of viable cell number/mL was performed as already described above. This measurement was performed in triplicate from three flasks per group, at 1, 3 and 5 days post-removal of treatment.

[12] = system: BxPC-3 Human pancreatic adenocarcinoma; test: Cell proliferation assay, BxPC-3; conditions: 24 hours of exposure (control 3.02)
Procedure: as §1, §2, §3

[13] = system: DU 145 Human prostatic carcinoma cells; test: Cell proliferation assay, DU 145; conditions: for Cell Number Doubling Time: 24 hours of exposure (control 2.17)
Procedure: as §1, §2, §3

[14] = system: MDA-MB-231 Human breast adenocarcinoma cells; test: Cell proliferation assay, MDA-MB-231; conditions: for Cell Number Doubling Time: 24 hours of exposure (control 3.11)
Procedure: as §1, §2, §3

[15] = system: Leishmania donovati MON-2 promastigotes; test: In vitro test against Leishmania promastigotes; conditions: read-out: Promastigotes IC50; stationary-phase promastigotes, 26° C.
[16] = system: Cytomegalovirus, Davis Strain-CMV; test: Inhibition of Cytomegalovirus in HS27 fibroblasts; conditions: 4.75 μg/ml spinosad, virus load of 50-100 infectious units, HS27 cells
[17] = system: Plasmodium falciparum 3D7 rings and trophozoites; test: Susceptibility of different stages of P. falciparum; conditions: 3D7 parasites, 48 h, 1% initial parasitemia
Plasmodium vinckei = test: In vivo test against Plasmodium vinckei parasites in mice; conditions: BALB/c female mice, 25 mg/kg intraperitoneally daily for 6 consecutive days in DMSO; vs DMSO control; P=0.0085
[18] = system: Herpes Simplex Virus 1 McIntyre (HSV1); test: IC50 assay against HSV1 in Vero cells (cytopathic effect); conditions: 100 infectious units of Herpes Simplex 1, up to 5 days
Procedure: We performed an IC50 assay, in which the amount of virus in the quadruplicate assay wells is identical, and the concentration of drug varies over a range of ten concentrations. This assay was performed in a 48 well tissue culture dish, each well containing the appropriate cell line at approximately 90% confluence. […] Approximately 100 infectious units per well were added to each test well. Cells, HSV1 virus and drug are incubated for up to 5 days and cytopathic effect is determined.

[19] = system: Leishmania donovati MON-2 amastigotes; test: In vitro test against Leishmania amastigotes in J774 macrophages; conditions: read-out: Amastigotes IC50; infected J774 macrophages
[20] = mouse code 3, total spinosad dosed 390 mg/kg i.p. over 20 days
[21] = mouse code 6, total spinosad dosed 360 mg/kg i.p. over 20 days
[22] = mouse code 9, total spinosad dosed 540 mg/kg i.p. over 20 days
[23] = mouse code 10, total spinosad dosed 540 mg/kg i.p. over 20 days
[24] = mouse code 12, total spinosad dosed 615 mg/kg i.p. over 20 days
[25] = mouse code 13, total spinosad dosed 585 mg/kg i.p. over 20 days
[26] = BxPC-3, 24 h post end of 24-hour exposure
[27] = DU 145, 24 h post end of 24-hour exposure
[28] = PC-3, 24 h post end of 24-hour exposure

Spinosad
inhibition of approximately 20 infectious units of the HSV1 virus [1]: 100%
inhibition of higher virus loads ([1]; more than approximately 20 infectious units): not inhibited
state of treated cell monolayer (Vero cells): healthy
toxicity against Vero cells (Vero cells): no toxicity
IC50 [2]: about 5 μg/ml
IC100 [2]: about 11.5 μg/ml
inhibition of virus [3]: no inhibition
inhibition of virus [4]: no inhibition
body weight ([5]; CD-1 athymic nude male mice, spinosad in DMSO i.p., on top of weight loss by DMSO alone): some weight loss
% difference of tumor volume day 21 vs day1 ([5]; mouse code 3, total spinosad dosed 390 mg/kg): −42%
tumor volume on day 21 [5, 20]: 107.7 mm^3
tumor volume on day1 [5, 20]: 184.7 mm^3
% difference of tumor volume day 21 vs day1 ([5]; mouse code 6, total spinosad dosed 360 mg/kg): −2%
tumor volume on day 21 [5, 21]: 254.7 mm^3
tumor volume on day1 [5, 21]: 260.6 mm^3
% difference of tumor volume day 21 vs day1 ([5]; mouse code 9, total spinosad dosed 540 mg/kg): −33%
tumor volume on day 21 [5, 22]: 119.8 mm^3
tumor volume on day1 [5, 22]: 179.9 mm^3
% difference of tumor volume day 21 vs day1 ([5]; mouse code 10, total spinosad dosed 540 mg/kg): −44%
tumor volume on day 21 [5, 23]: 128.9 mm^3
tumor volume on day1 [5, 23]: 228.9 mm^3
% difference of tumor volume day 21 vs day1 ([5]; mouse code 12, total spinosad dosed 615 mg/kg): −11%
tumor volume on day 21 [5, 24]: 142.1 mm^3
tumor volume on day1 [5, 24]: 159.4 mm^3
% difference of tumor volume day 21 vs day1 ([5]; mouse code 13, total spinosad dosed 585 mg/kg): 6%
tumor volume on day 21 [5, 25]: 246.5 mm^3
tumor volume on day1 [5, 25]: 233.3 mm^3
mean volume change ([5]; spinosad treated group (6 mice), total 360-615 mg/kg i.p. over 20 days, day 21 vs day1, DMSO control 54%, P < 0.02): −21%
mean tumor volume decreased by ([5]; spinosad treated group, 21st day, control/DMSO group increased 54%, P-value <0.02): 21%
cytotoxicity (H460 cells; 20 μg/mL spinosad, 3 hours of treatment): no cytotoxicity
concentration above which cell viability decreases (H460 cells; three hours of treatment): higher than 20 μg/mL
IC50 [6]: about 0.625 μg/ml
CC50 [7]: 42.6 ± 17.3 µM
elimination of parasites in spleen (leishmania donovati; BALB/c female mice, 31.6 mg/kg intraperitoneally daily for 14 consecutive days in DMSO, from two weeks post infection, P=0.05): 82%
elimination of parasites in the liver (leishmania donovati; BALB/c female mice, 31.6 mg/kg intraperitoneally daily for 14 consecutive days in DMSO, P=0.083): 73%
impact on liver and spleen weight (leishmania donovati; BALB/c mice, 31.6 mg/kg i.p. 14 days, Mann-Whitney test): no impact
signs of toxicity (leishmania donovati; BALB/c mice, treatment period of 14 days): No sign of toxicity
Calculated LC50 [8, 26]: 11.1 mg/L
Calculated LC100 [8, 26]: 31.6 µg/mL
Cell Survival (% of Control; mean ± S.D.) ([8]; BxPC-3, spinosad 10 μg/mL): 54.1 ± 9.8 % of Control
Cell Survival (% of Control; mean ± S.D.) ([8]; BxPC-3, spinosad 20 μg/mL): 25.5 ± 2.6 % of Control
Cell Survival (% of Control; mean ± S.D.) ([8]; BxPC-3, spinosad 30 μg/mL): 5.3 ± 2.6 % of Control
Calculated LC50 [9, 27]: 12.5 mg/L
Calculated LC100 [9, 27]: 32.8 µg/mL
Cell Survival (% of Control; mean ± S.D.) ([9]; DU 145, spinosad 10 μg/mL): 56.8 ± 3.1 % of Control
Cell Survival (% of Control; mean ± S.D.) ([9]; DU 145, spinosad 20 μg/mL): 30.2 ± 4.5 % of Control
Cell Survival (% of Control; mean ± S.D.) ([9]; DU 145, spinosad 30 μg/mL): 7.6 ± 4.1 % of Control
Calculated LC50 [10, 28]: 13.3 mg/L
Calculated LC100 [10, 28]: 34.2 µg/mL
Cell Survival (% of Control; mean ± S.D.) ([10]; PC-3, spinosad 10 μg/mL): 53.8 ± 8.0 % of Control
Cell Survival (% of Control; mean ± S.D.) ([10]; PC-3, spinosad 20 μg/mL): 42.0 ± 9.5 % of Control
Cell Survival (% of Control; mean ± S.D.) ([10]; PC-3, spinosad 30 μg/mL): 5.9 ± 2.5 % of Control
Cell Number Doubling Time ([11]; PC-3, spinosad 5 μg/mL): 4.17 days
Cell Number Doubling Time ([11]; PC-3, spinosad 10 μg/mL): 5.55 days
Cell Number Doubling Time ([11]; PC-3, spinosad 15 μg/mL): 6.24 days
Cell Number Doubling Time ([12]; BxPC-3, spinosad 5 μg/mL): 3.86 days
Cell Number Doubling Time ([12]; BxPC-3, spinosad 10 μg/mL): 4.76 days
Cell Number Doubling Time ([12]; BxPC-3, spinosad 15 μg/mL): 6.25 days
Cell Number Doubling Time ([13]; DU 145, spinosad 5 μg/mL): 2.89 days
Cell Number Doubling Time ([13]; DU 145, spinosad 10 μg/mL): 2.83 days
Cell Number Doubling Time ([13]; DU 145, spinosad 15 μg/mL): 3.18 days
cell number doubling time from 3 days post-treatment increased by ([13]; high dose level 15 μg/mL, DU 145): approximately 46.5%
Cell Number Doubling Time ([14]; MDA-MB-231, spinosad 5 μg/mL): 3.99 days
Cell Number Doubling Time ([14]; MDA-MB-231, spinosad 10 μg/mL): 5.09 days
Cell Number Doubling Time ([14]; MDA-MB-231, spinosad 15 μg/mL): 7.13 days
cell number doubling time from 3 days post-treatment increased by ([14]; high dose level 15 μg/mL, MDA-MB-231): approximately 129.3%
IC50 [15]: 9.5 ± 3.8 µM
inhibition of virus [16]: no inhibition
activity against rings versus trophozoites [17]: same activity against both rings and trophozoites
reduction in the number of Plasmodium vinckei parasites (Plasmodium vinckei): 70%
IC50 [18]: about 17.42 μg/ml
IC50 [19]: 9 ± 3 µM
